Assay results published in patent US6770597B2, “Benzohydrazide derivatives as herbicides and desiccant compositions containing them” (Ishihara Sangyo Kaisha, Ltd., priority 2002, dated 2004).

Columns and labels:
Format in all cases: in vivo
[1] = system: lambsquarters (Chenopodium album, CHEAL); test: Greenhouse herbicide screen, post-emerge application, phytotoxicity rating; details: POST emergent, 14 days after application, scale 0-100
Source text: (§1) A standard greenhouse herbicide activity screening system was used to evaluate the herbicidal efficacy and crop safety of these test compounds. Seven broadleaf weed species including redroot pigweed (Amaranthus retrofiexus, AMARE), velvetleaf (Abutilon theophrasti, ABUTH), sicklepod (Cassia obtusifolia, CASOB), ivyleaf morningglory (Ipomoea hederacea, IPOHE), lambsquarters (Chenopodium album, CHEAL), common ragweed (Ambrosia artemisiifolia L., AMBEL), and cocklebur (Xanthium strumarium, XANST) were used as test species. Four grass weed species including green foxtail (Setaria viridis, SETVI), barnyardgrass (Echinochloa crus-galli, ECHCG), johnsongrass (Sorghum halepense, SORHA), and large crabgrass (Digitaria sanguinalis, DIGSA) were also used. In addition, four crop species, field corn (Zea mays L., var. Dekalb 535, CORN), soybean (Glycine max L., var. Pella 86, SOY), upland rice (Oryza sp., var.Cocodrie, RICE) and wheat (Triticum aestivum L.) were included.
(§2) All plants were grown in 10 cm square plastic pots which were filled with a sandy loam soil mix. For pre-emerge tests, seeds were planted one day prior to application of the test compounds. For post-emerge tests, seeds were planted 8-21 days prior to the test to allow emergence and good foliage development prior to application of the test substances. At the time of the post-emerge application, plants of all species were usually at the 2-3 leaf stage of development.
(§3) All test compounds were dissolved in acetone and applied to the test units in a volume of 187 l/ha. Test materials were applied at rates ranging from 15 g ai/ha to 1000 g ai/ha using a track sprayer equipped with a TJ8001E even flow flat fan spray nozzle. Plants were arranged on a shelf so that the top of the canopy (post-emerge) or top of the soil surface (pre-emerge) was 40-45 cm below the nozzle. Pressurized air was used to force the test solution through the nozzle as it was mechanically advanced (via electrically driven chain drive) over the top of all test plants/pots. This application simulates a typical commercial field herbicide application.
(§4) Pre-emergence tests were top watered immediately after treatment to incorporate the test materials, then routinely top-watered for normal growth. Post-emerge test units were always bottom-watered.
(§5) At 14 days after application of the test materials, phytotoxicity ratings were recorded. A rating scale of 0-100 was used as previously described in Research Methods in Weed Science, 2nd edition, B. Truelove, Ed., Southern Weed Science Society, Auburn University, Auburn, Ala., 1977. Briefly, “0” corresponds to no damage and “100” corresponds to complete death of all plants in the test unit. This scale was used both to determine efficacy against weed species and damage to crop species. Herbicide activity data for various compounds of this invention, which are shown by compound No. in Tables 1-12, are shown in Tables 13 and 14.

[2] = system: large crabgrass (Digitaria sanguinalis, DIGSA); test: as above; details: POST emergent, 14 days after application, scale 0-100
Source text: as §1, §2, §3, §4, §5

[3] = system: green foxtail (Setaria viridis, SETVI); test: as above; details: POST emergent, 14 days after application, scale 0-100
Source text: as §1, §2, §3, §4, §5

[4] = system: ivyleaf morningglory (Ipomoea hederacea, IPOHE); test: as above; details: POST emergent, 14 days after application, scale 0-100
Source text: as §1, §2, §3, §4, §5

[5] = system: common ragweed (Ambrosia artemisiifolia L., AMBEL); test: as above; details: POST emergent, 14 days after application, scale 0-100
Source text: as §1, §2, §3, §4, §5

[6] = system: sicklepod (Cassia obtusifolia, CASOB); test: as above; details: POST emergent, 14 days after application, scale 0-100
Source text: as §1, §2, §3, §4, §5

[7] = system: redroot pigweed (Amaranthus retrofiexus, AMARE); test: as above; details: POST emergent, 14 days after application
Source text: as §1, §2, §3, §4, §5

[8] = system: cocklebur (Xanthium strumarium, XANST); test: as above; details: POST emergent, 14 days after application, scale 0-100
Source text: as §1, §2, §3, §4, §5

[9] = system: barnyardgrass (Echinochloa crus-galli, ECHCG); test: as above; details: POST emergent, 14 days after application, scale 0-100
Source text: as §1, §2, §3, §4, §5

[10] = system: johnsongrass (Sorghum halepense, SORHA); test: as above; details: POST emergent, 14 days after application, scale 0-100
Source text: as §1, §2, §3, §4, §5

[11] = system: velvetleaf (Abutilon theophrasti, ABUTH); test: as above; details: POST emergent, 14 days after application, scale 0-100
Source text: as §1, §2, §3, §4, §5

[12] = system: lambsquarters (Chenopodium album, CHEAL); test: Greenhouse herbicide screen, pre-emerge application, phytotoxicity rating; details: PRE emergent, 14 days after application, rating scale 0-100
Source text: as §1, §2, §3, §4, §5

[13] = system: large crabgrass (Digitaria sanguinalis, DIGSA); test: as above; details: PRE emergent, 14 days after application, rating scale 0-100
Source text: as §1, §2, §3, §4, §5

[14] = system: green foxtail (Setaria viridis, SETVI); test: as above; details: PRE emergent, 14 days after application, rating scale 0-100
Source text: as §1, §2, §3, §4, §5

[15] = system: ivyleaf morningglory (Ipomoea hederacea, IPOHE); test: as above; details: PRE emergent, 14 days after application, rating scale 0-100
Source text: as §1, §2, §3, §4, §5

[16] = system: common ragweed (Ambrosia artemisiifolia L., AMBEL); test: as above; details: PRE emergent, 14 days after application, rating scale 0-100
Source text: as §1, §2, §3, §4, §5

[17] = system: sicklepod (Cassia obtusifolia, CASOB); test: as above; details: PRE emergent, 14 days after application, rating scale 0-100
Source text: as §1, §2, §3, §4, §5

[18] = system: redroot pigweed (Amaranthus retrofiexus, AMARE); test: as above; details: PRE emergent, 14 days after application, rating scale 0-100
Source text: as §1, §2, §3, §4, §5

[19] = system: cocklebur (Xanthium strumarium, XANST); test: as above; details: PRE emergent, 14 days after application, rating scale 0-100
Source text: as §1, §2, §3, §4, §5

[20] = system: barnyardgrass (Echinochloa crus-galli, ECHCG); test: as above; details: PRE emergent, 14 days after application, rating scale 0-100
Source text: as §1, §2, §3, §4, §5

[21] = system: johnsongrass (Sorghum halepense, SORHA); test: as above; details: PRE emergent, 14 days after application, rating scale 0-100
Source text: as §1, §2, §3, §4, §5

[22] = system: velvetleaf (Abutilon theophrasti, ABUTH); test: as above; details: PRE emergent, 14 days after application, rating scale 0-100
Source text: as §1, §2, §3, §4, §5

[23] = 63 g ai/ha, scale 0-100 (0 no damage, 100 complete death)

COC(=NN=C(C(C)(C)C)C(C)(C)C)c1cc(-n2c(=O)cc(C(F)(F)F)n(C)c2=O)c(F)cc1Cl [Compound 5-6, 2-chloro-5-(3,6-dihydro-3-methyl-2,6-dioxo-4-(trifluoromethyl)-1(2H)-pyrimidinyl)-N-[1-(1,1-dimethylethyl)-2,2-dimethylpropylidene]-4-fluoro-benzenecarbohydrazonic Acid Methyl Ester]
phytotoxicity rating CHEAL ([1]; 63 g ai/ha): 100
phytotoxicity rating CHEAL ([1]; 250 g ai/ha): 100
phytotoxicity rating DIGSA ([2]; 63 g ai/ha): 20
phytotoxicity rating DIGSA ([2]; 250 g ai/ha): 99
phytotoxicity rating SETVI ([3]; 63 g ai/ha): 95
phytotoxicity rating SETVI ([3]; 250 g ai/ha): 100
phytotoxicity rating IPOHE ([4]; 63 g ai/ha): 35
phytotoxicity rating IPOHE ([4]; 250 g ai/ha): 70
phytotoxicity rating AMBEL ([5]; 63 g ai/ha): 35
phytotoxicity rating AMBEL ([5]; 250 g ai/ha): 99
phytotoxicity rating CASOB ([6]; 63 g ai/ha): 40
phytotoxicity rating CASOB ([6]; 250 g ai/ha): 98
phytotoxicity rating AMARE [7, 23]: 100
phytotoxicity rating AMARE ([7]; 250 g ai/ha, scale 0-100): 100
phytotoxicity rating XANST ([8]; 63 g ai/ha): 0
phytotoxicity rating XANST ([8]; 250 g ai/ha): 10
phytotoxicity rating ECHCO ([9]; 63 g ai/ha): 40
phytotoxicity rating ECHCO ([9]; 250 g ai/ha): 90
phytotoxicity rating SORHA ([10]; 63 g ai/ha): 25
phytotoxicity rating SORHA ([10]; 250 g ai/ha): 100
phytotoxicity rating ABUTH ([11]; 63 g ai/ha): 75
phytotoxicity rating ABUTH ([11]; 250 g ai/ha): 95
phytotoxicity rating CHEAL ([12]; 63 g ai/ha): 100
phytotoxicity rating CHEAL ([12]; 250 g ai/ha): 100
phytotoxicity rating DIGSA ([13]; 63 g ai/ha): 20
phytotoxicity rating DIGSA ([13]; 250 g ai/ha): 99
phytotoxicity rating SETVI ([14]; 63 g ai/ha): 95
phytotoxicity rating SETVI ([14]; 250 g ai/ha): 100
phytotoxicity rating IPOHE ([15]; 63 g ai/ha): 35
phytotoxicity rating IPOHE ([15]; 250 g ai/ha): 70
phytotoxicity rating AMBEL ([16]; 63 g ai/ha): 35
phytotoxicity rating AMBEL ([16]; 250 g ai/ha): 99
phytotoxicity rating CASOB ([17]; 63 g ai/ha): 40
phytotoxicity rating CASOB ([17]; 250 g ai/ha): 98
phytotoxicity rating AMARE ([18]; 63 g ai/ha): 100
phytotoxicity rating AMARE ([18]; 250 g ai/ha): 100
phytotoxicity rating XANST ([19]; 63 g ai/ha): 0
phytotoxicity rating XANST ([19]; 250 g ai/ha): 10
phytotoxicity rating ECHCG ([20]; 63 g ai/ha): 40
phytotoxicity rating ECHCG ([20]; 250 g ai/ha): 90
phytotoxicity rating SORHA ([21]; 63 g ai/ha): 25
phytotoxicity rating SORHA ([21]; 250 g ai/ha): 100
phytotoxicity rating ABUTH ([22]; 63 g ai/ha): 75
phytotoxicity rating ABUTH ([22]; 250 g ai/ha): 95

Cn1c(C(F)(F)F)cc(=O)n(-c2cc(C(=O)NN=C(C(C)(C)C)C(C)(C)C)c(Cl)cc2F)c1=O [Compound 6-4, 2-chloro-5-(3,6-dihydro-3-methyl-2,6-dioxo-4-(trifluoromethyl)-1(2H)-pyrimidinyl)-4-fluoro-benzoic acid, 2-[1-(1,1-dimethylethyl)-2,2-dimethylpropylidene]hydrazide]
phytotoxicity rating CHEAL ([1]; 63 g ai/ha): 100
phytotoxicity rating CHEAL ([1]; 250 g ai/ha): 100
phytotoxicity rating DIGSA ([2]; 63 g ai/ha): 50
phytotoxicity rating DIGSA ([2]; 250 g ai/ha): 70
phytotoxicity rating SETVI ([3]; 63 g ai/ha): 85
phytotoxicity rating SETVI ([3]; 250 g ai/ha): 100
phytotoxicity rating IPOHE ([4]; 63 g ai/ha): 100
phytotoxicity rating IPOHE ([4]; 250 g ai/ha): 100
phytotoxicity rating AMBEL ([5]; 63 g ai/ha): 75
phytotoxicity rating AMBEL ([5]; 250 g ai/ha): 100
phytotoxicity rating CASOB ([6]; 63 g ai/ha): 99
phytotoxicity rating CASOB ([6]; 250 g ai/ha): 95
phytotoxicity rating AMARE [7, 23]: 100
phytotoxicity rating AMARE ([7]; 250 g ai/ha, scale 0-100): 100
phytotoxicity rating XANST ([8]; 63 g ai/ha): 100
phytotoxicity rating XANST ([8]; 250 g ai/ha): 100
phytotoxicity rating ECHCO ([9]; 63 g ai/ha): 80
phytotoxicity rating ECHCO ([9]; 250 g ai/ha): 100
phytotoxicity rating SORHA ([10]; 63 g ai/ha): 75
phytotoxicity rating SORHA ([10]; 250 g ai/ha): 100
phytotoxicity rating ABUTH ([11]; 63 g ai/ha): 100
phytotoxicity rating ABUTH ([11]; 250 g ai/ha): 100
phytotoxicity rating CHEAL ([12]; 63 g ai/ha): 100
phytotoxicity rating CHEAL ([12]; 250 g ai/ha): 100
phytotoxicity rating DIGSA ([13]; 63 g ai/ha): 100
phytotoxicity rating DIGSA ([13]; 250 g ai/ha): 100
phytotoxicity rating SETVI ([14]; 63 g ai/ha): 100
phytotoxicity rating SETVI ([14]; 250 g ai/ha): 100
phytotoxicity rating IPOHE ([15]; 63 g ai/ha): 100
phytotoxicity rating IPOHE ([15]; 250 g ai/ha): 100
phytotoxicity rating AMBEL ([16]; 63 g ai/ha): 100
phytotoxicity rating AMBEL ([16]; 250 g ai/ha): 100
phytotoxicity rating CASOB ([17]; 63 g ai/ha): 98
phytotoxicity rating CASOB ([17]; 250 g ai/ha): 100
phytotoxicity rating AMARE ([18]; 63 g ai/ha): 100
phytotoxicity rating AMARE ([18]; 250 g ai/ha): 100
phytotoxicity rating XANST ([19]; 63 g ai/ha): 98
phytotoxicity rating XANST ([19]; 250 g ai/ha): 100
phytotoxicity rating ECHCG ([20]; 63 g ai/ha): 98
phytotoxicity rating ECHCG ([20]; 250 g ai/ha): 100
phytotoxicity rating SORHA ([21]; 63 g ai/ha): 99
phytotoxicity rating SORHA ([21]; 250 g ai/ha): 100
phytotoxicity rating ABUTH ([22]; 63 g ai/ha): 100
phytotoxicity rating ABUTH ([22]; 250 g ai/ha): 100
